Numbers after ± are expanded uncertainties.
Tests used:
[1] = Liquid; for mass density: 298.15 K, 101.33 kPa, Pycnometric method; for Normal boiling temperature: Ebulliometric method (Recirculating still)
[2] = refractive index (Na D-line) (dimensionless); details: 298.15 K; 101.33 kPa; Liquid; Standard Abbe refractometry

Row | mass density [1] | Normal boiling temperature [1] | refractive index [2] | SMILES
1 | 863.8 ± 0.8 kg/m3 | 111.97 ± 0.2 °C | 1.3872 ± 0.0007 | CCC(C)OC(C)=O (stereo not given) [1-methylpropyl ethanoate]
2 |  | 82.36 ± 0.2 °C | 1.3857 ± 0.0007 | CC(C)(C)O [2-methylpropan-2-ol]
3 | 805.8 ± 0.7 kg/m3 |  | 1.397 ± 0.0007 | CCCCO [butan-1-ol]
4 | 797.4 ± 0.7 kg/m3 | 107.68 ± 0.2 °C | 1.3931 ± 0.0007 | CC(C)CO [2-methyl-1-propanol]
